Experimental data reported in patent US20180051301A1, “INDUCTION OF PACEMAKER-LIKE CELLS FROM CARDIOMYOCYTES” (WASHINGTON UNIVERSITY, priority 2015, published 2018).

Columns and labels:
Assay type in all cases: cell-based
[1] = test system: failing slices (left ventricular free wall of failing hearts); experiment: Optical mapping of acute drug response in failing human heart slices; conditions: isoproterenol, baseline 0.47±0.008
Procedure: Adult human hearts were procured either as failing human hearts from Barnes-Jewish Hospital or donor human hearts from Mid-America transplant services. Explanted hearts were cardioplegically arrested via high potassium solution (in mmol/L: NaCl 110, CaCl2 1.2, KCl 16, MgCl2 16, NaHCO3 10) and were cooled to approximately 4° C. in the operating room following aortic cross-clamp. Failing hearts were perfused through both coronaries, while donor hearts were perfused systemically prior to removal from body. The heart was maintained at this low temperature to preserve tissue during the 15-20 minute transportation time from the operating room to the research laboratory.
(§1) Ventricular slices were electrophysiologically studied with optical mapping technique. […] Transmembrane potential (Vm) was measured using di4-ANEEPS and RH237 (Life Technologies). Intracellular calcium was measured using Rhod-2AM (Life Technologies). […]
Activation map was plotted via calculating activation time points at 50% of action potential upstroke amplitude. Action potential and calcium transient duration was calculated at 80% repolarization/relaxation. When slices were field-paced, conduction velocity could not be quantified via traditional longitudinal and transverse direction. During point pacing conduction velocity was calculated using a semi-automated Matlab function ORCA. […]

[2] = test system: Donor left ventricular slices; experiment: Optical mapping of acute drug response in donor human left ventricular slices; conditions: donor left ventricular slices paced at 1 Hz; β-adrenergic stimulation with isoproterenol (100 nM); ±S.D.; baseline 0.67±0.03
Procedure: After arrival, an approximately one-inch cube of left ventricular tissue or right atrial tissue was cut in cardioplegic solution. Left ventricular tissue was taken from a region close to left anterior descending artery and circumflex artery. Atrial tissue was taken from crista terminalis below sinoatrial node region. Premade 4% agarose gel cooled at 4° C. was glued on to the tissue holder of a high precision vibrating microtome (7000 smz-2, Campden Instruments Ltd. UK). The tissue block was then mounted endocardium up on the agarose. […] Slices were cut tangential to the endocardium. […]
as §1
Activation map was plotted via calculating activation time points at 50% of action potential upstroke amplitude. Action potential and calcium transient duration was calculated at 80% repolarization/relaxation. When slices were field-paced, conduction velocity could not be quantified via traditional longitudinal and transverse direction. During point pacing conduction velocity was calculated using a semi-automated Matlab function ORCA. Effective refractory period was measured using S1-S1 pacing protocol until 1:1 capture was lost. […]

[3] = test system: human ventricular slices (α1-adrenergic receptor stimulation); experiment: Chronic drug model: acute versus chronic phenylephrine in cultured human ventricular slices, optical mapping; conditions: for effect on AP duration (APD): 1 Hz (60 BPM) pacing
Procedure: Non-failing donor hearts that were rejected for transplantation were cardioplegically arrested and cooled in the operating room following the same procedure accepted for heart transplantation. Cardiac tissue that was promptly delivered to the research laboratory, where it was sliced tangential to the endocardium using a high precision (1 μm) vibrating microtome, transferred to a custom-designed incubation apparatus, and cultured at a liquid-air interface in 6-well culture plates using Transwell inserts. Slices were cultured in M-199 supplemented with 1×ITS (Insulin, Transferrin, Selenium), 10 mM 2,3-butanedione monoxime, and 2% penicillin-streptomycin in a 37° C. incubator with humidified air with 5% CO2. Culture medium was changed daily. Vital tissue slices from adult myocardium prepared in this manner have previously been cultured for up to 28 days with high cellular viability and maintenance of expression of the major ion channels and action potential characteristics.
Slices were cultured in medium 199 supplemented with 2% penicillin-streptomycin, 1×ITS (Insulin, Transferrin, Selenium) liquid media supplement, and 10 mM 2,3-butanedione monoxime. Slices were individually washed in sterile PBS solution 6 times before placing in culture. Sterile forceps were used to handle slices at all time. […]
After a 24 hour culture period, slices' electrophysiology was measured with optical mapping to examine potential functional changes occurred during culture. […]
Utilizing cultured slices and adult dosage of phenylephrine, a widely used selective α1-adrenergic receptor agonist, a model to study chronic drug effects in human cardiac slices was developed. Slice electrophysiology was first acutely measured using optical mapping after application of 3 μM phenylephrine. […]
Slices were cultured in a tissue incubator for 24 hours. Control cultured slices were measured before and after phenylephrine application similar to acute slices, slices cultured in drug media were measured separately. […] Only transverse conduction velocity could be measured accurately due to the small size of the tissue.
Activation map was plotted via calculating activation time points at 50% of action potential upstroke amplitude. Action potential and calcium transient duration was calculated at 80% repolarization/relaxation. When slices were field-paced, conduction velocity could not be quantified via traditional longitudinal and transverse direction. During point pacing conduction velocity was calculated using a semi-automated Matlab function ORCA. Effective refractory period was measured using S1-S1 pacing protocol until 1:1 capture was lost. Action potential and calcium transient were recorded at cycle lengths from 2000 ms to 200 ms.

| Structure (SMILES) | conduction velocity (CV) [1] [m/s] | conduction velocity (CV) [2] [m/s] | effect on AP restitution curve ([3]; acute (15 minutes) 3 μM, at baseline as well as after one day in culture) | effect on AP duration (APD) ([3]; acute treatment at baseline and after one day in culture) | effect on AP restitution curve ([3]; chronic (24 hours) 3 μM) | effect on AP duration (APD) ([3]; chronic treatment (24 hours)) |
| --- | --- | --- | --- | --- | --- | --- |
| CC(C)NCC(O)c1ccc(O)c(O)c1 (stereo not drawn) [isoproterenol] | 0.54±0.006 | 0.84±0.03 | – | – | – | – |
| CNC[C@H](O)c1cccc(O)c1 [phenylephrine] | – | – | shifted the AP restitution curve upwards significantly | APD lengthening | shifted the AP restitution curve downwards | APD shortening |
